Source: publication PMC7883726 (Acta Pharmaceutica Sinica. B, 2021)
Read-outs that look alike come from different tables or passages of the source.

Target: SARS-CoV-2 RdRp (Severe acute respiratory syndrome coronavirus 2, UniProt P0DTD1)
Experiment: biochemical
Assay type: binding
Conditions: for koff: read-out: kdis
[1] = KD, BLI, 1:1 binding model, compounds 3.125–100 μmol/L
[2] = BLI, 1:1 binding model, compounds 3.125–100 μmol/L

SMILES	Kd	kdis	kon	Kd [1]	koff	further results
O=C(O)CCc1cc(C(=O)c2ccc(OC3CCCC3)cc2O)ccc1OCc1ccc2c(=O)[nH]oc2c1 [RAI-S-47, T-5224]	38.7 ± 1.63 µM	0.00774 s⁻¹	200 L/mol/s	–	–	–
CC1(C)CC[C@]2(C(=O)O)CC[C@]3(C)C(=CC[C@@H]4[C@@]5(C)CCC(=O)C(C)(C)[C@@H]5CC[C@]43C)[C@@H]2C1 [RAI-S-35, Oleanonic Acid]	–	–	98.4 L/mol/s	171 ± 35.9 µM	0.0168 s⁻¹	–
Cc1ccc(Oc2nc3cc(-c4ccc(-c5ccccc5)cc4)c(Cl)cc3[nH]2)cc1C(=O)O [RAI-S-45, MK-3903]	220 ± 19.4 µM	0.0665 s⁻¹	302 L/mol/s	–	–	–
O=C(O[C@@H]1O[C@@H]2COC(=O)c3cc(O)c(O)c(O)c3-c3c(cc(O)c(O)c3O)C(=O)O[C@H]([C@H]1O)[C@@H]2O)c1cc(O)c(O)c(O)c1 [RAI-S-37, Corilagin]	–	–	496 L/mol/s	0.54 ± 0.01 µM	0.000268 s⁻¹	–
O=C(Nc1nc(-c2ccc(O)c(O)c2)c(-c2ccccc2)s1)c1ccc(O)c(O)c1 [RAI-S-34, COH29]	> 1000 µM	0.189 s⁻¹	8.10 L/mol/s	–	–	–
C[C@@H]1O[C@@H](OC[C@H]2O[C@@H](Oc3cc(O)c4c(=O)cc(-c5ccc(O)cc5)oc4c3)[C@H](O[C@@H]3O[C@@H](C)[C@H](O)[C@@H](O)[C@H]3O)[C@@H](O)[C@@H]2O)[C@H](O)[C@H](O)[C@H]1O [RAI-S-38, Ligustroflavone]	–	–	–	–	–	KD [2]: did not detect the binding
C[C@@H]1O[C@@H](OC[C@H]2O[C@@H](OCCc3ccc(O)c(O)c3)[C@H](O)[C@@H](O)[C@@H]2OC(=O)/C=C/c2ccc(O)c(O)c2)[C@H](O)[C@H](O)[C@H]1O [RAI-S-36, Forsythoside A]	–	–	–	–	–	Kd [2]: < 50 µM; Kd (BLI, 1:1 binding model, compounds 3.125–100 μmol/L, listed as 36): 1.16 ± 0.44 µM; kon (BLI, association rate constant): 137 L/mol/s; kdis (BLI, dissociation rate constant): 0.000159 s⁻¹
COc1cc(C(=O)NS(=O)(=O)c2ccccc2C)ccc1Cc1cn(C)c2ccc(NC(=O)OC3CCCC3)cc12 [RAI-S-19, Zafirlukast]	–	–	8.43 L/mol/s	> 1000 µM	4.99 s⁻¹	–
C[C@@H]1O[C@@H](O[C@@H]2[C@@H](O)[C@H](OCCc3ccc(O)c(O)c3)O[C@H](CO)[C@H]2OC(=O)/C=C/c2ccc(O)c(O)c2)[C@H](O)[C@H](O)[C@H]1O [RAI-S-11, Verbascoside]	–	–	108 L/mol/s	0.84 ± 0.85 µM	9.05e-05 s⁻¹	–
